Measured values from US7153855B2, “Pyrazolopyridinyl pyrimidine therapeutic compounds” (SmithKline Beecham Corporation, priority 2001, dated 2006).

Tested on: HSV-1
Test: HSV-1 infection of Vero 76 cells, viral DNA detected by hybridization capture (chemiluminescence)
Assay type: cell-based
Settings: Human alphaherpesvirus 1; HSV-1 in Vero 76 cells, MOI=0.001, compounds incubated 40–48 hours at 37° C.; read-out: IC50
Description: In the following example, “MEM” means Minimal Essential Media; “FBS” means Fetal Bovine Serum; “NP40” and “Igepal” are detergents; “MOI” means Multiplicity of Infection; “NaOH” means sodium hydroxide; “MgCl2” means magnesium chloride; “dATP” means deoxyadenosine 5′ triphosphate; “dUTP” means deoxyuridine 5′ triphosphate; “dCTP” means dexoxycytidine 5′ triphosphate; “dGTP” means deoxyguanosine 5′ triphosphate; “GuSCN” means Guanidinium thiocyanate; “EDTA” means ethylenediamine tetraacetic acid; “TE” means Tris-EDTA; “SCC” means sodium chloride/sodium citrate; “APE” means a solution of ammonia acetate, ammonia phosphate, EDTA; “PBS” means phosphate buffered saline; and “HRP” means horseradish peroxidase.
Vero 76 cells were maintained in MEM with Earle's salts, L-glutamine, 8% FBS (Hyclone, A-1111-L) and 100 units/mL Penicillin-100 μg/mL Streptomycin. For assay conditions, FBS was reduced to 2%. Cells are seeded into 96-well tissue culture plates at a density of 5×10^4 cells/well after being incubated for 45 min at 37° C. in the presence of HSV-1 or HSV-2 (MOI=0.001). Test compounds are added to the wells and the plates are incubated at 37° C. for 40–48 hours. Cell lysates are prepared as follows: media was removed and replaced with 150 μL/well 0.2 N NaOH with 1% Igepal CA 630 or NP-40. Plates were incubated up to 14 days at room temperature in a humidified chamber to prevent evaporation.
For the detection probe, a gel-purified, digoxigenin-labeled, 710-bp PCR fragment of the HSV UL-15 sequence was utilized. PCR conditions included 0.5 μM primers, 180 μM dTTP, 20 μM dUTP-digoxigenin (Boehringer Mannheim 1558706), 200 μM each of dATP, dCTP, and dGTP, 1×PCR Buffer II (Perkin Elmer), 2.5 mM MgCl2, 0.025 units/μL of AmpliTaq Gold polymerase (Perkin Elmer), and 5 ng of gel-purified HSV DNA per 100 μL Extension conditions were 10 min at 95° C., followed by 30 cycles of 95° C. for 1 min, 55° C. for 30 sec, and 72° C. for 2 min. The amplification was completed with a 10-min incubation at 72° C. Primers were selected to amplify a 728 bp probe spanning a section of the HSV1 UL15 open reading frame (nucleotides 249–977). Single-stranded transcripts were purified with Promega M13 Wizard kits. The final product was mixed 1:1 with a mixture of 6 M GuSCN, 100 mM EDTA and 200 μg/mL herring sperm DNA and stored at 4° C.
The capture DNA plasmid (HSV UL13 region in pUC) was linearized by cutting with Xba I, denatured for 15 min at 95° C. and diluted immediately into Reacti-Bind DNA Coating Solution (Pierce, 17250, diluted 1:1 with TE buffer, pH 8) at 1 ng/μL 75 μL/well were added to Corning (#3922 or 9690) white 96-well plates and incubated at room temperature for at least 4 hrs before washing twice with 300 μL/well 0.2×SSC/0.05% Tween-20 (SSC/T buffer). The plates were then incubated overnight at room temperature with 150 μL/well 0.2 N NaOH, 1% IGEPAL and 10 μg/mL herring sperm DNA.
Twenty-seven (27) μL of cell lysate was combined with 45 μL of hybridization solution (final concentration: 3M GuSCN, 50 mM EDTA, 100 μg/ml salmon sperm DNA, 5×Denhardt's solution, 0.25×APE, and 5 ng of the digoxigenin-labeled detection probe). APE is 1.5 M NH4-acetate, 0.15 M NH4H2 phosphate, and 5 mM EDTA adjusted to pH 6.0. Mineral oil (50 μL) was added to prevent evaporation. The hybridization plates were incubated at 95° C. for 10 minutes to denature the DNA, then incubated at 42° C. overnight. The wells were washed 6× with 300 μL/well SSC/T buffer then incubated with 75 μL/well anti-digoxigenin-HRP-conjugated antibody (Boehringer Mannheim 1207733, 1:5000 in TE) for 30 min at room temperature. The wells were washed 6× with 300 μL/well with PBS/0.05% Tween-20 before 75 μL/well SuperSignal LBA substrate (Pierce) was added. The plates were incubated at room temperature for 30 minutes and chemiluminescence was measured in a Wallac Victor reader.
The following results were obtained for HSV-1.

Structure (SMILES) | IC50
CCCCNc1nccc(-c2c(-c3ccc(-c4ccccc4)cc3)nn3c(NCCCC)cccc23)n1 [Example 15, 2-[1,1′-Biphenyl]-4-yl-N-butyl-3-[2-(butylamino)-4-pyrimidinyl]pyrazolo-[1,5-a]pyridin-7-amine] | 1000 nM
Fc1cccc(-c2nn3c(NC4CC4)cccc3c2-c2ccnc(NC3CCCC3)n2)c1 [Example 105, 3-[2-(Cyclopentylamino)-4-pyrimidinyl]-N-cyclopropyl-2-(3-fluorophenyl)pyrazolo[1,5-a]pyridin-7-amine] | 600 nM
CCCCNc1nccc(-c2c(-c3ccc(N(CC4CC4)CC4CC4)cc3)nn3c(NCCCC)cccc23)n1 [Example 21, 2-{4-[Bis(cyclopropylmethyl)amino]phenyl}-N-butyl-3-[2-(butylamino)-4-pyrimidinyl]pyrazolo[1,5-a]pyridin-7-amine] | 15000 nM
COc1ccc(-c2nn3c(NC4CCCC4)cccc3c2-c2ccnc(NC3CCCC3)n2)cc1 [Example 1, N-Cyclopentyl-3-[2-(cyclopentylamino)-4-pyrimidinyl]-2-(4-methoxyphenyl)-pyrazolo[1,5-a]pyridin-7-amine] | 300 nM
CCCCNc1nccc(-c2c(-c3ccc(N(C)C)cc3)nn3c(NCCCC)cccc23)n1 [Example 23, N-Butyl-3-[2-(butylamino)-4-pyrimidinyl]-2-[4-(dimethylamino)phenyl]-pyrazolo[1,5-a]pyridin-7-amine] | 2000 nM
Nc1cccc(-c2nn3c(N4CCCC4)cccc3c2-c2ccnc(NC3CCCC3)n2)c1 [Example 37, 4-[2-(3-Aminophenyl)-7-(1-pyrrolidinyl)pyrazolo[1,5-a]pyridin-3-yl]-N-cylopentyl-2-pyrimidinamine] | 3000 nM
COc1ccc(-c2nn3c(NC4CC4)cccc3c2-c2ccnc(NC3CCCC3)n2)cc1 [Example 60, 3-[2-(Cyclopentylamino)-4-pyrimidinyl]-N-cyclopropyl-2-(4-methoxyphenyl)pyrazolo[1,5-a]pyridin-7-amine] | 400 nM
Clc1cccc(-c2nn3c(NC4CC4)cccc3c2-c2ccnc(NC3CCCC3)n2)c1 [Example 101, 2-(3-Chlorophenyl)-3-[2-(cyclopentylamino)-4-pyrimidinyl]-N-cyclopropylpyrazolo[1,5-a]pyridin-7-amine] | 200 nM
CCCCNc1nccc(-c2c(-c3ccc(N)cc3)nn3c(NCCCC)cccc23)n1 [Example 16, N-{4-[2-(4-Aminophenyl)-7-(butylamino)pyrazolo[1,5-a]pyridin-3-yl]-2-pyrimidinyl}-N-butylamine] | 1000 nM
COc1ccc(-c2nn3c(NCCCCO)cccc3c2-c2ccnc(NC3CCCC3)n2)cc1 [Example 90, 4-{[3-[2-(Cyclopentylamino)pyrimidin-4-yl]-2-(4-methoxyphenyl)-pyrazolo[1,5-a]pyridin-7-yl]amino}butan-1-ol] | 200 nM
COc1ccc(-c2nn3c(NC4CCCC4)cccc3c2-c2ccnc(NC3CC3)n2)cc1 [Example 58, N-Cyclopentyl-3-[2-(cyclopropylamino)-4-pyrimidinyl]-2-(4-methoxyphenyl)pyrazolo[1,5-a]pyridin-7-amine] | 400 nM
Nc1nccc(-c2c(-c3cccc(Br)c3)nn3c(NC4CCCC4)cccc23)n1 [Example 27, N-[3-(2-Amino-4-pyrimidinyl)-2-(3-bromophenyl)pyrazolo[1,5-a]pyridin-7-yl]-N-cyclopentylamine] | 1500 nM
CCCCNc1nccc(-c2c(-c3ccc(NCc4ccccc4)cc3)nn3c(NCCCC)cccc23)n1 [Example 45, 2-[4-(Benzylamino)phenyl]-N-butyl-3-[2-(butylamino)-4-pyrimidinyl]-pyrazolo[1,5-a]pyridin-7-amine] | 22000 nM
c1cc(NC2CCCC2)n2nc(-c3ccc(OCC4CCC4)cc3)c(-c3ccnc(NC4CCCC4)n3)c2c1 [Example 12, 2-[4-(Cyclobutylmethoxy)phenyl]-N-cyclopentyl-3-[2-(cyclopentylamino)-4-pyrimidinyl]pyrazolo[1,5-a]pyridin-7-amine] | 2000 nM
C=CCOc1ccc(-c2nn3c(NC4CCCC4)cccc3c2-c2ccnc(NC3CCCC3)n2)cc1 [Example 7, 2-[4-(Allyloxy)phenyl]-N-cyclopentyl-3-[2-(cyclopentylamino)-4-pyrimidinyl]pyrazolo[1,5-a]pyridin-7-amine] | 150 nM
COc1ccc(-c2nn3c(NCCNS(C)(=O)=O)cccc3c2-c2ccnc(NC3CCCC3)n2)cc1 [Example 95, N-(2-{[3-[2-(Cyclopentylamino)-4-pyrimidinyl]-2-(4-methoxy-phenyl)pyrazolo[1,5-a]pyridin-7-yl]amino}ethyl)methanesulfonamide] | 300 nM
Oc1ccc(-c2nn3c(NC4CC4)cccc3c2-c2ccnc(NC3CCCC3)n2)cc1 [Example 67, 4-[3-[2-(Cyclopentylamino)-4-pyrimidinyl]-7-(cyclopropylamino)pyrazolo[1,5-a]pyridin-2-yl]phenol] | 300 nM
Clc1cccc(-c2nn3c(N4CCOCC4)cccc3c2-c2ccnc(NC3CCCC3)n2)c1 [Example 103, 4-[2-(3-Chlorophenyl)-7-(4-morpholinyl)pyrazolo[1,5-a]pyridin-3-yl]-N-cyclopentyl-2-pyrimidinamine] | 500 nM
Oc1ccc(-c2nn3c(N4CCCC4)cccc3c2-c2ccnc(NC3CCCC3)n2)cc1 [Example 5, 4-[3-[2-(Cyclopentylamino)-4-pyrimidinyl]-7-(1-pyrrolidinyl)pyrazolo[1,5-a]pyridin-2-yl]phenol] | 2000 nM
COc1ccc(-c2nn3c(NCCCCNC(=N)N)cccc3c2-c2ccnc(NC3CCCC3)n2)cc1 [Example 85, N-(4-{[3-[2-(Cyclopentylamino)pyrimidin-4-yl]-2-(4-methoxyphenyl)pyrazolo[1,5-a]pyridin-7-yl]amino}butyl)guanidine] | 4000 nM
COCCNc1cccc2c(-c3ccnc(NC4CC4)n3)c(-c3ccc(OC)cc3)nn12 [Example 64, 3-[2-(Cyclopropylamino)-4-pyrimidinyl]-N-(2-methoxyethyl)-2-(4-methoxyphenyl)pyrazolo[1,5-a]pyridin-7-amine] | 300 nM
c1ccc(-c2cccc(-c3nn4c(N5CCCC5)cccc4c3-c3ccnc(NC4CCCC4)n3)c2)cc1 [Example 30, 4-[2-[1,1′-Biphenyl]-3-yl-7-(1-pyrrolidinyl)pyrazolo[1,5-a]pyridin-3-yl]-N-cyclopentyl-2-pyrimidinamine] | 800 nM
Fc1cccc(-c2nn3c(N4CCOCC4)cccc3c2-c2ccnc(NC3CCCC3)n2)c1 [Example 97, N-Cyclopentyl-4-[2-(3-fluorophenyl)-7-(4-morpholinyl)pyrazolo[1,5-a]pyridin-3-yl]-2-pyrimidinamine] | 700 nM
COc1ccc(-c2nn3c(NCCCCNC(=O)NS(=O)(=O)c4ccc(C)cc4)cccc3c2-c2ccnc(NC3CCCC3)n2)cc1 [Example 87, N-{[(4-{[3-[2-(Cyclopentylamino)pyrimidin-4-yl]-2-(4-methoxyphenyl)pyrazolo[1,5-a]pyridin-7-yl]amino}butyl)amino]carbonyl}-4-methylbenzenesulfonamide] | 1000 nM
Fc1cccc(-c2nn3c(NC4CCCC4)cccc3c2-c2ccnc(NC3CCCC3)n2)c1 [Example 56, N-Cyclopentyl-3-[2-(cyclopentylamino)-4-pyrimidinyl]-2-(3-fluorophenyl)pyrazolo[1,5-a]pyridin-7-amine] | 200 nM
